# Results published in ChEMBL document CHEMBL4308854, “Novel indole-thiazolidinone conjugates: Design, synthesis and whole-cell phenotypic evaluation as a novel class of antimicrobial agents” (Eur J Med Chem, 2018).
# What was measured:
# [1] = tested on: Escherichia coli; assay: Antibacterial activity against Escherichia coli RCMB 010052 assessed as diameter of zone inhibition after 24 hrs by agar well diffusion assay; type: functional
# [2] = tested on: Aspergillus fumigatus; assay: Antifungal activity against Aspergillus fumigatus RCMB 02568 after 24 hrs by serial dilution method; type: functional; conditions: RCMB 02568, 24 h
# [3] = tested on: Candida albicans; assay: Antifungal activity against Candida albicans RCMB 05036 assessed as diameter of zone inhibition after 48 hrs by agar well diffusion assay; type: functional
# [4] = tested on: Pseudomonas aeruginosa; assay: Antibacterial activity against Pseudomonas aeruginosa RCMB 010043 after 24 hrs by serial dilution method; type: functional; conditions: RCMB 010043, 24 h
# [5] = tested on: Staphylococcus aureus; assay: Antibacterial activity against Staphylococcus aureus RCMB 010028 after 24 hrs by serial dilution method; type: functional; conditions: RCMB 010028, 24 h
# [6] = tested on: Mycolicibacterium aurum; assay: Antitubercular activity against Mycobacterium aurum infected in mouse RAW264.7 cells measured after 48 hrs; type: functional
# [7] = tested on: Escherichia coli; assay: Antibacterial activity against Escherichia coli RCMB 010052 after 24 hrs by serial dilution method; type: functional; conditions: RCMB 010052, 24 h
# [8] = Stability in mouse RAW264.7 cells measured after 48 hrs; type: ADME, cell-based; conditions: raw264.7, 48 h
# [9] = tested on: Staphylococcus aureus; assay: Potency index, ratio of ciprofloxacin MIC to compound MIC for Staphylococcus aureus RCMB 010028; type: functional
# [10] = tested on: Candida albicans; assay: Antifungal activity against Candida albicans RCMB 05036 after 24 hrs by serial dilution method; type: functional; conditions: RCMB 05036, 24 h
# [11] = Cytotoxicity against mouse RAW264.7 cells; type: cell-based
# [12] = tested on: Aspergillus fumigatus; assay: Potency index, ratio of amphotericin B MIC to compound MIC for Aspergillus fumigatus RCMB 02568; type: functional
# [13] = Selectivity index, ratio of GI50 for mouse RAW264.7 cells to MIC for Mycobacterium aurum infected in mouse RAW264.7 cells; type: toxicity, cell-based; conditions: read-out: Selectivity Index
# [14] = tested on: Pseudomonas aeruginosa; assay: Antibacterial activity against Pseudomonas aeruginosa RCMB 010043 assessed as diameter of zone inhibition after 24 hrs by agar well diffusion assay; type: functional
# [15] = tested on: Escherichia coli; assay: Potency index, ratio of ciprofloxacin MIC to compound MIC for Escherichia coli RCMB 010052; type: functional
# [16] = tested on: Pseudomonas aeruginosa; assay: Potency index, ratio of ciprofloxacin MIC to compound MIC for Pseudomonas aeruginosa RCMB 010043; type: functional
# [17] = tested on: Mycobacterium tuberculosis; assay: Potency index, ratio of isoniazid MIC to compound MIC for antitubercular activity against Mycobacterium tuberculosis RCMB 010126 clinical isolate; type: functional
# [18] = tested on: Mycobacterium tuberculosis; assay: Antitubercular activity against Mycobacterium tuberculosis RCMB 010126 clinical isolate after 4 days by microplate alamar blue assay; type: functional; conditions: for MIC: Mycobacterium tuberculosis, RCMB 010126, 96 h
# [19] = tested on: Aspergillus fumigatus; assay: Antifungal activity against Aspergillus fumigatus RCMB 02568 assessed as diameter of zone inhibition after 48 hrs by agar well diffusion assay; type: functional
# [20] = tested on: Staphylococcus aureus; assay: Antibacterial activity against Staphylococcus aureus RCMB 010028 assessed as diameter of zone inhibition after 24 hrs by agar well diffusion assay; type: functional
# [21] = tested on: Aspergillus fumigatus; assay: Potency index, ratio of amphotericin B MIC to compound MIC for antifungal activity against Aspergillus fumigatus RCMB 02568; type: functional
# [22] = tested on: Staphylococcus aureus; assay: Antibacterial activity against methicillin-resistant Staphylococcus aureus ATCC 33592 after 24 hrs by serial dilution method; type: functional; conditions: ATCC 33592, 24 h
Compound,diameter of the inhibition zone (DIZ) [1] [mm],MIC [2] [mg/L],diameter of the inhibition zone (DIZ) [3] [mm],MIC [4] [mg/L],MIC [5] [mg/L],MIC [6] [mg/L],MIC [7] [mg/L],Stability [8],Ratio [9],MIC [10] [mg/L],GI50 [11] [mg/L],Ratio [12],diameter of the inhibition zone (DIZ) [14] [mm],Ratio [15],Ratio [16],inhibition (INH) [18] [%],MIC [18] [mg/L],diameter of the inhibition zone (DIZ) [19] [mm],diameter of the inhibition zone (DIZ) [20] [mm],Ratio [21],other results
CCOC(=O)c1sc(/N=C2\NC(=O)/C(=C3/C(=O)Nc4ccc(Cl)cc43)S2)nc1C,23.2,1.95,24.4,0.98,0.98,> 200,0.98,Stable,2,0.49,> 125,2,22.6,2,4,56.34,0.39,22.7,23.1,–,selectivity ratio [13]: < 0.625; Ratio [17]: 2
CC(=O)c1sc(/N=C2\NC(=O)/C(=C3/C(=O)N(Cc4ccccc4)c4ccc(Cl)cc43)S2)nc1C,25.6,0.98,25.3,0.98,0.98,–,0.49,–,2,0.49,–,2,23.5,4,4,80.34,0.39,23.6,23.6,2,Ratio [17]: 2
CN[C@H](CC(C)C)C(=O)N[C@H]1C(=O)N[C@@H](CC(N)=O)C(=O)N[C@H]2C(=O)N[C@H]3C(=O)N[C@H](C(=O)N[C@H](C(=O)O)c4cc(O)cc(O)c4-c4cc3ccc4O)[C@H](O)c3ccc(c(Cl)c3)Oc3cc2cc(c3O[C@@H]2O[C@H](CO)[C@@H](O)[C@H](O)[C@H]2O[C@H]2C[C@](C)(N)[C@H](O)[C@H](C)O2)Oc2ccc(cc2Cl)[C@H]1O [VANCOMYCIN],–,–,–,–,–,–,–,–,–,–,–,–,–,–,–,–,–,–,–,–,MIC [22]: 1.95 mg/L
CCOC(=O)c1sc(/N=C2\NC(=O)/C(=C3/C(=O)N(Cc4ccccc4)c4ccccc43)S2)nc1C,24.8,0.98,25.2,1.95,1.95,200,0.98,Stable,–,0.49,500,–,23.1,2,2,87.38,0.39,23.2,24.2,2,selectivity ratio [13]: 2.5
CCOC(=O)c1sc(/N=C2\NC(=O)/C(=C3/C(=O)Nc4ccccc43)S2)nc1C,22.4,0.98,22.7,1.95,0.98,100,1.95,Stable,–,0.98,125,–,21.8,–,2,72.14,0.78,21.6,22.5,2,selectivity ratio [13]: 1.25
CC(=O)c1sc(/N=C2\NC(=O)/C(=C3/C(=O)Nc4ccc(Cl)cc43)S2)nc1C,24.3,0.98,24.2,0.98,0.98,–,0.49,–,2,0.49,–,2,22.5,4,4,74.32,0.78,22.9,22.1,2,–
